Source: patent publication US12478628B2, “Germ cell nuclear factor ligands and methods of use thereof” (Saint Louis University, priority 2020, dated 2025)

Tests used:
GCNF LBD Y336F = biological target: T1, GCNF LBD Y336F (Homo sapiens, UniProt Q15406, Y336F); assay: DSF of GCNF LBD mutant Y336F; assay type: binding; conditions: 5 mM protein with 20 mM ligand as printed
T1 construct: Human GCNF (NR6A1) LBD (residues 248-480); hexahistidine tag with 3C protease site; made in house; host or cells: E. coli BL(21) DE3
T1 sequence (Q15406 248-480 Y336F): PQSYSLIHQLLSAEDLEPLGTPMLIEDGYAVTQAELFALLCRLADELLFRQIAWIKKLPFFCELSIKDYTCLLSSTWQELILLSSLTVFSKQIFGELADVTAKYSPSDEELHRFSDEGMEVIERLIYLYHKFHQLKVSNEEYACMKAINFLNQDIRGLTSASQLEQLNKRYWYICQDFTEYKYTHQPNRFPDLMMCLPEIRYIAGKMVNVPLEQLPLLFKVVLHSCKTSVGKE
Method: DSF Assay. GCNF LBD (5 μM) were mixed with 1× Sypro orange (Invitrogen) in DSF buffer (50 mM HEPES, 50 mM KCl, 5 mM TCEP, 0.5 mM EDTA, pH 7.5). […] Ten microliters (10 μL)×5 replicates for each sample were plated on 384-well PCR microplate. No protein control and no ligand references were also run simultaneously in 5 replicates on the same plate. A total of 450 compounds (Life Chemicals) previously selected from a nuclear-receptor-biased library targeting REV-ERB were analyzed. Thermal stability was assessed on a Quantstudio 6 instrument (Biosystems) by ramping the temperature from 25° C. to 95° C. at 0.05° C./s and protein melt shifts were subsequently quantified by Boltzmann-derived melting temperature (Tm) using the Protein Thermal Shift (ThermoFisher) software. Positive hits were identified when a thermal shift (ΔTm) of at least 2° C. was observed.

[1] = test system: GCNF single point mutations F284A, Y336F and F361A with SMRT ID2 peptide; assay: FP SMRT ID2 recruitment with GCNF point mutants; assay type: biochemical, human; conditions: Y336F and F361A vs wild-type
Method: FP Assay. Fluorescence polarization (FP) assays were performed in triplicate on a 384-well Corning 3820 black opaque plate using a Biotek Synergy Neo2 HTS multimode microplate reader at excitation and emission wavelengths of 485 nm and 538 nm, respectively. Data were analyzed and plotted using GraphPad Prism as mean±SEM.
For the FP ligand titration assay, the aforementioned N-terminus fluorescein-tagged corepressor peptides were diluted to 500 nM from a 100 μM DMSO stock in the presence of 20 μM GCNF LBD and ligand concentration points 30, 20, 13, 9, 6, 4, 2.6, 1.7 and 0 μM in assay buffer containing 50 mM HEPES (pH 7.5), 50 mM KCl, 5 mM TCEP, 0.5 mM EDTA and 0.005% Tween20. The relative polarization was plotted against log of ligand concentration (μM) and the half maximal effective concentration (EC50) values were derived via sigmoidal fit.

[2] = test system: i3 neurons differentiated from iPSCs; assay: qPCR of pluripotency and neuronal markers after iPSC differentiation; assay type: cell-based; conditions: qPCR upon ligand treatment
Method: qPCR using iPSC samples and differentiated neurons samples to make sure the primers worked. These primers include: • Housekeeping genes for normalization: CYCLO, 36B4, GAPDH • Stem cell markers: OCT4, SOX2, NANOG, REX1 • Neuronal markers: MAP2, MAPT, TUBB3, NCAM1
iPSC Differentiation to Neurons. For growing neurons from iPSC cells, the method described by Femandopulle were employed (Femandopulle et al., 2018). Briefly, cells were treated with doxycycline to turn on expression of Neurogenin-2 (NGN2), which irreversibly sets these cells on the path of neuronal differentiation. The cells were treated with doxycycline for 3 days (changing media every day), and then re-plate the cells onto new plates coated with PLO. For each time point, 21 samples were prepared (DMSO and ligands 34 and 80 at different concentrations, in triplicate).
An overview of the experiment timeline is shown as well: • Day 0: Plate iPSC on matrigel-coated 12-well plates • Day 2: Treat cells −/+ ligands in iPSC media • Day 3: Refeed cells induction media +Doxycycline −/+ ligands to start neuronal differentiation (Day 0 of differentiation) • Day 4: Refeed cells induction media +Doxycycline −/+ ligands (Day 1 of differentiation) • Day 5: Refeed cells induction media +Doxycycline −/+ ligands (Day 2 of differentiation) • Day 6: Take pictures; Refeed cells neuronal media −/+ ligands (Day 3 of differentiation) • Day 7: Collect cells for RNA/qPCR (Day 4 of differentiation)

[3] = biological target: T2, chimeric Gal4-DBD human GCNF-LBD (Homo sapiens, UniProt Q15406); assay: Luciferase cotransfection reporter assay in HEK293 cells; assay type: cell-based; conditions: read-out: IC50, suppression of GCNF transactivation
T2 construct: expressed in transfected cells; host or cells: HEK293
T2 sequence (Q15406 249-480 limits assumed): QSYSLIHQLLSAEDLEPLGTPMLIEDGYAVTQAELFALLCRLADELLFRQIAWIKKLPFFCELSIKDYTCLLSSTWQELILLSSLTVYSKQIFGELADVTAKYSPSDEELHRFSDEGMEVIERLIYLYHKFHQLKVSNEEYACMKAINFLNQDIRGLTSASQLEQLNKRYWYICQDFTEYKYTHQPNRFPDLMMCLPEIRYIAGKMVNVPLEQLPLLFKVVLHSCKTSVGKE
Method: Cell Culture, Cotransfection Assays, and QPCR Analysis. Cotransfection assays were performed in HEK293 cells as previously described (Griffett et al., 2013; Wu et al., 2003; Savkur et al., 2003). Briefly, for dose-response cotransfection assays, a chimeric Gal4-DBD human GCNF-LBD in the pBIND vector was cotransfected with pGL4.35[luc2P/9XGAL4UAS/Hygro] vector (Promega). All cotransfections were normalized to renilla (pGL4.73; Dual-Glo luciferase reagent; Promega) and subsequently DMSO for analysis.

SMILES | effect of substitution Y336F on ligand binding (DSF) (GCNF LBD Y336F) | SMRT-ID2 peptide recruitment by GCNF mutants [1] | expression of pluripotency marker Sox2 [2] | IC50 [3] [nM] | expression of neuronal marker MAPT [2]
Cc1ccc(-n2ncc3c(N4CCOCC4)nc(NCc4ccco4)nc32)cc1 [Ligand 34, N-[(furan-2-yl)methyl]-1-(4-methylphenyl)-4-(morpholin-4-yl)-1H-pyrazolo[3,4-d]pyrimidin-6-amine] | substantially affect the binding | substantially weakened corepressor peptide recruitment | substantially decreased | 1100 | –
O=C(Cn1cc(S(=O)(=O)c2ccccc2)c2ccccc21)N1CCc2ccccc21 [Ligand 80, 2-[3-(benzenesulfonyl)-1H-indol-1-yl]-1-(2,3-dihydro-1H-indol-1-yl)ethan-1-one] | only F361A significantly affect the binding of 80 | does not affect recruitment | substantially decreased | 317 | substantially increased
